Data from article PMC7115498 (European Journal of Medicinal Chemistry, 2009).
≈ marks a conversion by molar mass, not a printed value. Where two headings read alike, the source gives them in different places.

How the values were obtained:
[1] = system: Parainfluenza-3 virus; assay: organism not typed; type: cell-based; conditions: Vero
[2] = system: Reovirus-1; assay: organism not typed; type: cell-based; conditions: Vero
[3] = system: Coxsakie virus B4; assay: organism not typed; type: cell-based; conditions: Vero
[4] = system: Herpes simplex virus-1TK- KOS ACV; assay: organism not typed; type: cell-based; conditions: HEL
[5] = system: HIV-1 IIIB strain; type: cell-based; conditions: for IC50: MTT method, Exp_nr P3.4401 and P3.4406
[6] = system: HIV-1 ROD strain; type: cell-based; conditions: for IC50: MTT method, Exp_nr P3.4402 and P3.4407
[7] = system: MT-4 cells; conditions: MTT method
[8] = in vitro; conditions: human, CC50, MT-4 cells, MTT method; IIIB experiments P3.4401 and P3.4406
[9] = Partition coefficient by stir-flask method, octanol-water system; conditions: octanol / 0.1 NaOH solution, 25 °C, UV
[10] = system: E. coli; assay: Antibacterial microdilution broth susceptibility test; type: cell-based, Escherichia coli; conditions: 24 h, Gram-negative E. coli, 37 °C, no turbidity
[11] = system: HPV; conditions: ref Singh et al. unpublished results; cited from earlier work
[12] = system: Gram-positive cocci and Gram-negative bacilli; assay: Antibacterial activity over all strains tested; type: cell-based; conditions: in vitro
[13] = in vitro; conditions: African green monkey, CC50, Vero cells, MTS assay
[14] = system: S. viridans; assay: Antibacterial microdilution broth susceptibility test; type: cell-based, Streptococcus viridans; conditions: Gram-positive S. viridans; 37 °C, 24 h, no turbidity
[15] = system: K. pneumoniae; assay: as above; type: cell-based, Klebsiella pneumoniae; conditions: Gram-negative K. pneumoniae; 37 °C, 24 h, no turbidity
[16] = system: P. miraleilis; assay: as above; type: cell-based, Proteus mirabeilis; conditions: Gram-negative P. miraleilis; 37 °C, 24 h, no turbidity
[17] = system: Feline corona virus (FIPV); type: cell-based; conditions: virus N, CRFK cells, MTS assay
[18] = system: Feline herpes virus; type: cell-based; conditions: virus O, CRFK cells, MTS assay
[19] = system: CRFK cells; conditions: MTS assay
[20] = ROD experiments P3.4402 and P3.4407

Molecule | EC50 [1] | EC50 [2] | EC50 [3] | EC50 [4] | IC50 ([6]; HIV-1 ROD, MT-4 cells) | CC50 [7, 20] | also measured
Nc1ncnc2c1ncn2C[C@H](O)CO [(S)-DHPA, reference compound] | > 250000 nM | > 250000 nM | > 250000 nM |  |  |  | 
COc1cc(/C=C/C(=O)CC(=O)/C=C/c2ccc(OC(=O)[C@H](Cc3ccccc3)NC(=O)[C@@H](N)Cc3c[nH]c4ccccc34)c(OC)c2)ccc1OC(=O)[C@H](Cc1ccccc1)NC(=O)[C@@H](N)Cc1c[nH]c2ccccc12 [Compound 2, 1,7-Bis-[(4,4-di-O-tryptophanylphenylalanine)3-methoxyphenyl]-1,6-heptadiene-3,5-dione] | > 38 nM | > 19 nM | > 19 nM | > 38 nM | > 103 nM | 103 nM | SI (Selectivity index: CC50/IC50 ratio) [5]: <1; IC50 ([5]; HIV-1 IIIB, MT-4 cells): > 93 nM; SI (Selectivity index: CC50/IC50 ratio) [6]: <1; CC50 [8]: 94 nM; P (partition coefficient), stir-flask method [9]: 5.50 × 10^2
CCCCCCCCCC(=O)Oc1ccc(/C=C/C(=O)CC(=O)/C=C/c2ccc(OC(=O)CCCCCCCCC)c(OC)c2)cc1OC [Compound 3, 1,7-Bis-[(4,4-di-O-decanoyl)3-methoxyphenyl]-1,6-heptadiene-3,5-dione] |  |  |  |  |  |  | MIC ([10]; Escherichia coli): 0.369 µM (≈ 0.25 µg/mL); P (partition coefficient), stir-flask method [9]: 1.69 × 10^8
CCCCCCCCCCCCCCCC(=O)Oc1ccc(/C=C/C(=O)CC(=O)/C=C/c2ccc(OC(=O)CCCCCCCCCCCCCCC)c(OC)c2)cc1OC [Compound 4, 1,7-Bis-[(4,4-di-O-pamitoyl)3-methoxyphenyl]-1,6-heptadiene-3,5-dione] |  |  |  |  |  |  | MIC ([10]; Escherichia coli): 0.591 µM (≈ 0.5 µg/mL)
COc1cc(/C=C/C(=O)CC(=O)/C=C/c2ccc(OC(=O)CCC(NC(=O)c3ccc(NCc4cnc5nc(N)[nH]c(=O)c5n4)cc3)C(=O)O)c(OC)c2)ccc1OC(=O)CCC(NC(=O)c1ccc(NCc2cnc3nc(N)[nH]c(=O)c3n2)cc1)C(=O)O (stereo not drawn) [Compound 6, 1,7-Bis-[(4,4-di-O-bis-(γ,γ)-folyl)3-methoxyphenyl]-1,6-heptadiene-3,5-dione] | > 82 nM | > 82 nM | > 82 nM | > 82 nM | > 50 nM | 50 nM | IC50 ([5]; HIV-1 IIIB, MT-4 cells): > 46 nM; Activity against HPV causing cervical cancer [11]: very active
COc1cc(/C=C/C(=O)C(CCOC(=O)CCC(NC(=O)c2ccc(NCc3cnc4nc(N)[nH]c(=O)c4n3)cc2)C(=O)O)C(=O)/C=C/c2ccc(O)c(OC)c2)ccc1O (stereo not drawn) [Compound 8, 1,7-Bis-[(4-hydroxy-3-methoxyphenyl)]-1,6-heptadiene-C^4-ethyl-O-folyl-3,5-dione] | > 11 nM | > 11 nM | > 11 nM | > 11 nM | > 62 nM | 62 nM | 
COc1cc(/C=C/C(=O)CC(=O)/C=C/c2ccc(OCCOC(=O)CCC(NC(=O)c3ccc(NCc4cnc5nc(N)[nH]c(=O)c5n4)cc3)C(=O)O)c(OC)c2)ccc1O (stereo not drawn) [Compound 10, 1-(4-Hydroxy-3-methoxyphenyl)-7-(4-O-ethyl-O-folyl-3-methoxyphenyl)-1,6-heptadiene-3,5-dione] | > 119 nM | > 119 nM | > 119 nM | > 119 nM | > 88 nM | 88 nM | SI (Selectivity index: CC50/IC50 ratio) ([5]; HIV-1 IIIB, MT-4 cells): <1; IC50 ([5]; HIV-1 IIIB, MT-4 cells): > 58 nM; SI (Selectivity index: CC50/IC50 ratio) ([6]; HIV-1 ROD, MT-4 cells): <1; CC50 ([7]; IIIB experiments P3.4401 and P3.4406): 58 nM
COc1cc(/C=C/C(=O)CC(=O)/C=C/c2ccc(O)c(OC)c2)ccc1O [Curcumin, 1,7-bis(4-hydroxy-3-methoxyphenyl)-1,6-heptadiene-3,5-dione, reference compound] | > 10 nM | > 10 nM | > 10 nM |  |  |  | MIC range over all strains [12]: 1.23 to 2.47 µM; P (partition coefficient), stir-flask method [9]: 1.70 × 10^2
NC(=O)c1ncn([C@@H]2O[C@H](CO)[C@@H](O)[C@H]2O)n1 [Ribavirin] |  | 250000 nM | > 250000 nM |  |  |  | CC50 ([13]; column J (Reovirus-1)): > 250000 nM; CC50 ([13]; column K (Sindbis virus)): > 250000 nM; CC50 ([13]; column L (Coxsakie virus B4)): > 250000 nM; CC50 ([13]; column M (Punta toro virus)): > 250000 nM
Gentamycin sulfate |  |  |  |  |  |  | MIC [14]: >1.73 µM; MIC [10]: >1.73 µM; MIC [15]: >1.73 µM; MIC [16]: >1.73 µM
UDA: reference in Table 2 (CRFK), not defined in the paper; presumably a plant lectin (protein, UniProt P11218 24-372, looked up) Lectin/endochitinase 1: QRCGSQGGGGTCPALWCCSIWGWCGDSEPYCGRTCENKCWSGERSDHRCGAAVGNPPCGQDRCCSVHGWCGGGNDYCSGSKCQYRCSSSVRGPRVALSGNSTANSIGNVVVTEPLFDQMFSHRKDCPSQGFYSYHSFLVAAESFPAFGTIGDVATRKREVAAFLAHISQATSGERSDVENPHAWGLCHINTTTVTENDFCTSSDWPCAAGKKYSPRGPIQLTHNFNYGLAGQAIGEDLIQNPDLVEKDPIISFKTALWFWMSQHDNKPSCHDIVLNANSAANRIPNKGVIGNIISRAFGHDDFAVRSSSIGFYKRYCDMLGVSYGHDLKYWFDNTPSSEFQRIQMRVAA |  |  |  |  |  |  | EC50 [17]: 1300 nM; EC50 [18]: 2900 nM; CC50 ([19]; column N (Feline corona virus FIPV)): > 100000 nM; CC50 ([19]; column O (Feline herpes virus)): > 100000 nM
